According to US11413264B2, “Carbamoyl phenylalaninol analogs and uses thereof” (Jazz Pharmaceuticals Ireland Limited, priority 2017, dated 2022):
Counter-ions that a name gives are not always drawn. Like-named read-outs stand apart in the source and are kept apart here.

Legend:
[1] = molecular target: T1, alpha2A adrenergic receptor (Alpha2A) (Homo sapiens, UniProt P08913); test: Competitive radioligand binding assay, α2A (antagonist radioligand); details: compound at 10 μM
T1 construct: expressed in transfected cells; host or cells: CHO cells (membrane fractions)
T1 sequence (P08913 1-465): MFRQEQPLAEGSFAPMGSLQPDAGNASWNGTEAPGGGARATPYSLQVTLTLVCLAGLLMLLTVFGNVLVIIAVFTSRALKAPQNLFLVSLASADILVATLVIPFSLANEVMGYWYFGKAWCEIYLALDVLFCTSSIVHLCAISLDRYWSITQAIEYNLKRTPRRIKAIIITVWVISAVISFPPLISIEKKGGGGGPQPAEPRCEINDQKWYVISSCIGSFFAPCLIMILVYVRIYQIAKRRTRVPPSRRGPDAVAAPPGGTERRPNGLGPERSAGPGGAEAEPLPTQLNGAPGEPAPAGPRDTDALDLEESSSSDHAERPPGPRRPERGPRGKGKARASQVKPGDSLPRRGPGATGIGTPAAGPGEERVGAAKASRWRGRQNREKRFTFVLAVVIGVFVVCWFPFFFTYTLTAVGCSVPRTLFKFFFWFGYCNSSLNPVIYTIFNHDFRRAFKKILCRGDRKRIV
Experimental: (§1) Compounds of the invention were tested for pharmacological activity in comparison to APC. Eight binding assays were carried out to provide a binding profile for each compound, including binding to dopamine transporter (DAT), norepinephrine transporter (NET), serotonin (5-HT) transporter (SERT), alpha2A adrenergic receptor (Alpha2A), alpha2C adrenergic receptor (Alpha2C), D2S dopamine receptor (D2S), D2L dopamine receptor (D2L), and vesicular monoamine transporter (VMAT2). Competitive binding assays using a radiolabeled ligand were carried out with each compound at 10 μM. The radioligand for each target was as follows: DAT—BTCP, NET—nisoxetine, SERT—imipramine, Alpha2A—yohimbine, Alpha2C—yohimbine, D2S—7-OH-DPAT, D2L—methylspiperone, VMAT2—tetrabenazine. The source of the receptors and transporters were prepared cell membrane fractions.

[2] = molecular target: T2, alpha2C adrenergic receptor (Alpha2C) (Homo sapiens, UniProt P18825); test: Competitive radioligand binding assay, α2C (antagonist radioligand); details: compound at 10 μM
T2 construct: expressed in transfected cells; host or cells: CHO cells (membrane fractions)
T2 sequence (P18825 1-462): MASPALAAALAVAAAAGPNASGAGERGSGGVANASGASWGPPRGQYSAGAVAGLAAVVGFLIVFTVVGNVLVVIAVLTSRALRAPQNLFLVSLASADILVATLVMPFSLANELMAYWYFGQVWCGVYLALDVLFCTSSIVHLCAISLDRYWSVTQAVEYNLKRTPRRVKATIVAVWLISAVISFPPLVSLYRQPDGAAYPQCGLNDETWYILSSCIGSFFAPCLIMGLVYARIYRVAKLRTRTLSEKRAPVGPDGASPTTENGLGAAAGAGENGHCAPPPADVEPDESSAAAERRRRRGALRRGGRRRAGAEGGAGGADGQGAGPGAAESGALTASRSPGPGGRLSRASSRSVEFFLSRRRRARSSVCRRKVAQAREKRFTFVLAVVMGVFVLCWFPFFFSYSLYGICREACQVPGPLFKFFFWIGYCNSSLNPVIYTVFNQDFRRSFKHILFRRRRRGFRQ
Experimental: as §1

[3] = molecular target: T3, D2S dopamine receptor (D2S) (Homo sapiens, UniProt P14416); test: Competitive radioligand binding assay, D2S (agonist radioligand); details: compound at 10 μM
T3 construct: expressed in transfected cells; host or cells: HEK-293 cells (membrane fractions)
Experimental: as §1

[4] = molecular target: T4, D2L dopamine receptor (D2L) (Homo sapiens, UniProt P14416); test: Competitive radioligand binding assay, D2L (antagonist radioligand); details: compound at 10 μM
T4 construct: expressed in transfected cells; host or cells: HEK-293 cells (membrane fractions)
Experimental: as §1

[5] = molecular target: T5, norepinephrine transporter (NET) (Homo sapiens, UniProt P23975); test: Competitive radioligand binding assay, norepinephrine transporter (antagonist radioligand); details: compound at 10 μM
T5 construct: expressed in transfected cells; host or cells: CHO cells (membrane fractions)
Experimental: as §1

[6] = molecular target: T6, dopamine transporter (DAT) (Homo sapiens, UniProt Q01959); test: Competitive radioligand binding assay, dopamine transporter (antagonist radioligand); details: compound at 10 μM; for binding to the dopamine transporter (in words): summary
T6 construct: expressed in transfected cells; host or cells: CHO cells (membrane fractions)
Experimental: as §1

[7] = molecular target: T7, serotonin (5-HT) transporter (SERT) (Homo sapiens, UniProt P31645); test: Competitive radioligand binding assay, 5-HT transporter (antagonist radioligand); details: compound at 10 μM
T7 construct: expressed in transfected cells; host or cells: CHO cells (membrane fractions)
Experimental: as §1

[8] = molecular target: T8, vesicular monoamine transporter (VMAT2) (Rattus norvegicus, UniProt Q01827); test: Competitive radioligand binding assay, VMAT2 transporter (antagonist radioligand); details: compound at 10 μM
T8 construct: Rat brain; from tissue; host or cells: rat brain minus cerebellum, membrane fraction
Experimental: as §1

[9] = 1st individual result, read-out: % inhibition of control specific binding, 1st
[10] = 2nd individual result, read-out: % inhibition of control specific binding, 2nd
[11] = mean, read-out: % inhibition of control specific binding, Mean
[12] = D2S, 1st individual result, read-out: % inhibition of control specific binding, 1st
[13] = D2S, 2nd individual result, read-out: % inhibition of control specific binding, 2nd
[14] = D2S, mean, read-out: % inhibition of control specific binding, Mean
[15] = [3H]7-OH-DPAT 1 nM, human recombinant (HEK-293 cells), read-out: % Inhibition of Binding at Each Transporter or Receptor Target, D2S
[16] = D2L, 1st individual result, read-out: % inhibition of control specific binding, 1st
[17] = D2L, 2nd individual result, read-out: % inhibition of control specific binding, 2nd
[18] = D2L, mean, read-out: % inhibition of control specific binding, Mean
[19] = [3H]methyl-spiperone 0.3 nM, human recombinant (HEK-293 cells), read-out: % Inhibition of Binding at Each Transporter or Receptor Target, D2L
[20] = Norepinephrine transporter, 1st individual result, read-out: % inhibition of control specific binding, 1st
[21] = Norepinephrine transporter, 2nd individual result, read-out: % inhibition of control specific binding, 2nd
[22] = Norepinephrine transporter, mean, read-out: % inhibition of control specific binding, Mean
[23] = [3H]nisoxetine 1 nM, human recombinant (CHO cells), read-out: % Inhibition of Binding at Each Transporter or Receptor Target, NET
[24] = Dopamine transporter, 1st individual result, read-out: % inhibition of control specific binding, 1st
[25] = Dopamine transporter, 2nd individual result, read-out: % inhibition of control specific binding, 2nd
[26] = Dopamine transporter, mean, read-out: % inhibition of control specific binding, Mean
[27] = [3H]BTCP 4 nM, human recombinant (CHO cells), read-out: % Inhibition of Binding at Each Transporter or Receptor Target, DAT
[28] = 5-HT transporter, 1st individual result, read-out: % inhibition of control specific binding, 1st
[29] = 5-HT transporter, 2nd individual result, read-out: % inhibition of control specific binding, 2nd
[30] = 5-HT transporter, mean, read-out: % inhibition of control specific binding, Mean
[31] = [3H]imipramine 2 nM, human recombinant (CHO cells), read-out: % Inhibition of Binding at Each Transporter or Receptor Target, SERT
[32] = VMAT2 transporter, single value, read-out: % inhibition of control specific binding, 1st
[33] = [3H]dihydrotetrabenazine 10 nM, rat brain (minus cerebellum), read-out: % Inhibition of Binding at Each Transporter or Receptor Target, VMAT2

T3 sequence (P14416 1-414 isoform P14416-2): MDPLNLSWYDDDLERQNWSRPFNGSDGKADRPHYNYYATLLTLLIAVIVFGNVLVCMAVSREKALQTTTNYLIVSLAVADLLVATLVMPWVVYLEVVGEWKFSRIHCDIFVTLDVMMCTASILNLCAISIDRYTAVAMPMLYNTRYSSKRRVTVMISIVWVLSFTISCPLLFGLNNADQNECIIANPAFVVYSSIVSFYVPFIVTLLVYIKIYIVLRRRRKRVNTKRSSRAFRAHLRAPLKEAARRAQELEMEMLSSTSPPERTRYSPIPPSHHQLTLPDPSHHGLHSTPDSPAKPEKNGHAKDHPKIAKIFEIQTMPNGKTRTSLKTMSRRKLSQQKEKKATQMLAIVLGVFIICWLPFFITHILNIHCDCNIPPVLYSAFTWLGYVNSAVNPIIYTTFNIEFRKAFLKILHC
T6 sequence (Q01959 whole entry): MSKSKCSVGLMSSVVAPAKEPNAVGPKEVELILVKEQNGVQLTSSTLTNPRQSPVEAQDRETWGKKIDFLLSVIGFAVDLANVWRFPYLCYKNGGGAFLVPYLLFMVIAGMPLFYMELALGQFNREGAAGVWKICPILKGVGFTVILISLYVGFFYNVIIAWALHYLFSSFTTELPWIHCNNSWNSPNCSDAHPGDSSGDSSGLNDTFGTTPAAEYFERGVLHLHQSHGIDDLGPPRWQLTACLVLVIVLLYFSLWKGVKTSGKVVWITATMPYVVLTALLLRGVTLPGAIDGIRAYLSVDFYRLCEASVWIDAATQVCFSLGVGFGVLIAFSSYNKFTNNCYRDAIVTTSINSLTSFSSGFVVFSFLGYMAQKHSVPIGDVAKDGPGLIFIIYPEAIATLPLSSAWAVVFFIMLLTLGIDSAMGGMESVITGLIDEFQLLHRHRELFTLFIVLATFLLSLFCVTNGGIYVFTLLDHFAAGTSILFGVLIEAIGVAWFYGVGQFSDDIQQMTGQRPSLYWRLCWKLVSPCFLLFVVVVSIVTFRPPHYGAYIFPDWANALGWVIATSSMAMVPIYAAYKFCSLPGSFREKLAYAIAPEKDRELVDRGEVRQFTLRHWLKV
T8 sequence (Q01827 whole entry): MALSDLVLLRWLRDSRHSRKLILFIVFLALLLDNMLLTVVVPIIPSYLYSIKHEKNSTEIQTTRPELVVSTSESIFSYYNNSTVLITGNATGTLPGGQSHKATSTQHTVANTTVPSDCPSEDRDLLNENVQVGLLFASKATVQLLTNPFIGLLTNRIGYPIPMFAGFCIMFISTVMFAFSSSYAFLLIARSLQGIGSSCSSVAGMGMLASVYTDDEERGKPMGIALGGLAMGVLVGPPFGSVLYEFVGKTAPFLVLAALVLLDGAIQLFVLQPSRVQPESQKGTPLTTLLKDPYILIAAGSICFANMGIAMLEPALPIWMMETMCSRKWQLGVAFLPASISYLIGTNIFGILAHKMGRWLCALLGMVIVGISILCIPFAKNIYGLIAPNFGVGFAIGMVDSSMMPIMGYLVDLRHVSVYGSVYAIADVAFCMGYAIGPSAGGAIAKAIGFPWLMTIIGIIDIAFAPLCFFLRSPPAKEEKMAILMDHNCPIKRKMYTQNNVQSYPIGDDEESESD
T7 sequence (P31645 whole entry): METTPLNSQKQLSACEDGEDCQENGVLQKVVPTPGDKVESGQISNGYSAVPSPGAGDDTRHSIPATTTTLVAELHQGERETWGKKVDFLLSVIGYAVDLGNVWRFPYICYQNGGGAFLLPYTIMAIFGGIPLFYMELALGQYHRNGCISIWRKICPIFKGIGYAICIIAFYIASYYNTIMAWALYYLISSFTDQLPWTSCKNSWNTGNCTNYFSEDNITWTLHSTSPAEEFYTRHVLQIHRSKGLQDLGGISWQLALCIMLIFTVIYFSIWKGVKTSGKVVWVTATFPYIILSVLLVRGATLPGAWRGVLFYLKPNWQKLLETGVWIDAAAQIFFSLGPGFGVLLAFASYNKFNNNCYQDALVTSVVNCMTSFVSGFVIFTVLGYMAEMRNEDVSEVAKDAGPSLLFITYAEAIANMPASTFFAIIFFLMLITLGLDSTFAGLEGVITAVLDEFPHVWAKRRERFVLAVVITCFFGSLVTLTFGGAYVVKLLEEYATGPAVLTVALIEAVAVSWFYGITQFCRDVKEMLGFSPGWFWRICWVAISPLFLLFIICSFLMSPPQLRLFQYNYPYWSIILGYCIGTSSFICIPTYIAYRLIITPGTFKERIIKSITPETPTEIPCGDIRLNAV
T5 sequence (P23975 whole entry): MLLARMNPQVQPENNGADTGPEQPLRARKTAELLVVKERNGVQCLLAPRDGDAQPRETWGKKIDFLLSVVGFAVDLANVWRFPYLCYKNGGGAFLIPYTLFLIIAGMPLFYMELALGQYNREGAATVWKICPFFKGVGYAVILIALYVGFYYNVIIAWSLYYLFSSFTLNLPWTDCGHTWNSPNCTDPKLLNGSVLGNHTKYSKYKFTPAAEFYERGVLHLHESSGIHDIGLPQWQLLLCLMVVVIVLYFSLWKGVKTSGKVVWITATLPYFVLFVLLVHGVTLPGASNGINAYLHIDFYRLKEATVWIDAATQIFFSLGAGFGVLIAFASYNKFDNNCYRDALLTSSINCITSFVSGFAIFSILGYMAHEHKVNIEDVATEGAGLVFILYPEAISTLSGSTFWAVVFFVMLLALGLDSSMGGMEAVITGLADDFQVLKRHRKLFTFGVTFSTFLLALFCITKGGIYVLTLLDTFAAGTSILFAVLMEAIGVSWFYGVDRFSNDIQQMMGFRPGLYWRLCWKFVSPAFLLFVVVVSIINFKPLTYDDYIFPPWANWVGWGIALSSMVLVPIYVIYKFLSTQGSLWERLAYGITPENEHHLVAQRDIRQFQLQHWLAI
T4 sequence (P14416 whole entry): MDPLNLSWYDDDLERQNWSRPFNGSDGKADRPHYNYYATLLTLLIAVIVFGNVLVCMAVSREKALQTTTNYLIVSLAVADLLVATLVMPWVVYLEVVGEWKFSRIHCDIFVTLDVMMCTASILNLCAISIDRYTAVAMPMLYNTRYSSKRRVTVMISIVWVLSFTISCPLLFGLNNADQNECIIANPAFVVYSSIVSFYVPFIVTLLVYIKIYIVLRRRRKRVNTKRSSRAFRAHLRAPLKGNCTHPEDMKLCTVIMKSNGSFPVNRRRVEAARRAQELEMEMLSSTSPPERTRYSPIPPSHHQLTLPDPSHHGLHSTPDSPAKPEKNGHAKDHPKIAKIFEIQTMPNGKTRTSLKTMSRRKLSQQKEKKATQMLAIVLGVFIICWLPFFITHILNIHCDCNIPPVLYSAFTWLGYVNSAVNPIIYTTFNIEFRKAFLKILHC

Question: What does the source list for `NC(=O)NC[C@H](N)Cc1ccccc1` [Compound 3, (R)-1-(2-Amino-3-phenylpropyl)urea hydrochloride]?
Answer: inhibition at 10 µM [1, 9]: 1.7%; inhibition at 10 µM [1, 10]: 7.8%; inhibition at 10 µM [1, 11]: 4.8%; inhibition at 10 µM [2, 9]: 8.6%; inhibition at 10 µM [2, 10]: 22.6%; inhibition at 10 µM [2, 11]: 15.6%; inhibition at 10 µM [3, 12]: -1.6%; inhibition at 10 µM [3, 13]: 0.2%; inhibition at 10 µM [3, 14]: -0.7%; inhibition at 10 µM [3, 15]: -0.7%; inhibition at 10 µM [4, 16]: -6.7%; inhibition at 10 µM [4, 17]: 7.6%; inhibition at 10 µM [4, 18]: 0.5%; inhibition at 10 µM [4, 19]: 0.5%; inhibition at 10 µM [5, 20]: 42.6%; inhibition at 10 µM [5, 21]: 23%; inhibition at 10 µM [5, 22]: 32.8%; inhibition at 10 µM [5, 23]: 32.8%; inhibition at 10 µM [6, 24]: 86.8%; inhibition at 10 µM [6, 25]: 90.5%; inhibition at 10 µM [6, 26]: 88.6%; inhibition at 10 µM [6, 27]: 88.6%; binding to the dopamine transporter (in words) [6]: substantial binding; inhibition at 10 µM [7, 28]: -2.4%; inhibition at 10 µM [7, 29]: -0.4%; inhibition at 10 µM [7, 30]: -1.4%; inhibition at 10 µM [7, 31]: -1.4%; inhibition at 10 µM [8, 32]: 0%; inhibition at 10 µM [8, 33]: 0%

Question: How did the inhibition at 10 µM [1, 9] turn out when `NC(=O)SC[C@H](N)Cc1ccccc1` [Compound 10, (R)—S-(2-Amino-3-phenylpropyl) carbamothioate hydrochloride] was run?
Answer: 64.4%

Question: What about the inhibition at 10 µM [1, 10] of the same compound?
Answer: 46.1%

Question: What about the inhibition at 10 µM [1, 11] of the same compound?
Answer: 55.3%

Question: And the inhibition at 10 µM [2, 9]?
Answer: 89.3%

Question: What about the inhibition at 10 µM [2, 10] of the same compound?
Answer: 92.4%

Question: And the inhibition at 10 µM [2, 11]?
Answer: 90.9%

Question: What about the inhibition at 10 µM [3, 12] of the same compound?
Answer: 89.5%

Question: What about the inhibition at 10 µM [3, 13] of the same compound?
Answer: 90.5%

Question: And the inhibition at 10 µM [3, 14]?
Answer: 90%

Question: What about the inhibition at 10 µM [3, 15] of the same compound?
Answer: 90%

Question: And the inhibition at 10 µM [4, 16]?
Answer: 33.7%

Question: And the inhibition at 10 µM [4, 17]?
Answer: 35.6%

Question: And the inhibition at 10 µM [4, 18]?
Answer: 34.7%

Question: And the inhibition at 10 µM [4, 19]?
Answer: 34.7%

Question: What about the inhibition at 10 µM [5, 20] of the same compound?
Answer: 91.7%

Question: What about the inhibition at 10 µM [5, 21] of the same compound?
Answer: 91.7%

Question: And the inhibition at 10 µM [5, 22]?
Answer: 91.7%

Question: What about the inhibition at 10 µM [5, 23] of the same compound?
Answer: 91.7%

Question: And the “binding to the norepinephrine transporter (in words)” value ([5]; summary)?
Answer: substantial binding

Question: And the inhibition at 10 µM [6, 24]?
Answer: 85.3%

Question: What about the inhibition at 10 µM [6, 25] of the same compound?
Answer: 87.3%

Question: And the inhibition at 10 µM [6, 26]?
Answer: 86.3%

Question: What about the inhibition at 10 µM [6, 27] of the same compound?
Answer: 86.3%

Question: What about the “binding to the dopamine transporter (in words)” value [6] of the same compound?
Answer: substantial

Question: And the inhibition at 10 µM [7, 28]?
Answer: 21.7%

Question: What about the inhibition at 10 µM [7, 29] of the same compound?
Answer: 22%

Question: What about the inhibition at 10 µM [7, 30] of the same compound?
Answer: 21.9%

Question: And the inhibition at 10 µM [7, 31]?
Answer: 21.9%

Question: And the inhibition at 10 µM [8, 32]?
Answer: 5%

Question: What about the inhibition at 10 µM [8, 33] of the same compound?
Answer: 5%
